Results from the NIST ThermoML archive (doi:10.1021/je9003178).
Numbers after ± are expanded uncertainties.

Assay: activity coefficient (dimensionless); of the first substance listed, at infinite dilution; xn = mol fraction of the nth substance listed
Conditions: Liquid, Chromatography, x1 = 0

Q: With `Cc1ccccc1C` [1,2-dimethylbenzene] + CCCCCC[N+](C)(C)C.O=S(=O)([N-]S(=O)(=O)C(F)(F)F)C(F)(F)F as the compound, how does the activity coefficient (322.65 K) read?
A: Its activity coefficient is 1.66 ± 0.068.

Q: And the activity coefficient (343.85 K)?
A: Its activity coefficient is 1.69 ± 0.07.

Q: And the activity coefficient (352.65 K)?
A: The activity coefficient was 1.76 ± 0.075.

Q: For `Cc1ccccc1C` [1,2-dimethylbenzene] + CCn1cc[n+](C)c1.N#CN=C=[N-], which activity coefficient (322.65 K) is on record?
A: Its activity coefficient is 5.86 ± 0.27.

Q: What about the activity coefficient (332.85 K) of the same compound?
A: Its activity coefficient is 5.8 ± 0.27.

Q: And the activity coefficient (343.15 K)?
A: The activity coefficient was 5.75 ± 0.26.

Q: Which results are given for `Cc1cccc(C)c1` [1,3-dimethylbenzene] + CCCCCC[N+](C)(C)C.O=S(=O)([N-]S(=O)(=O)C(F)(F)F)C(F)(F)F?
A: activity coefficient (322.65 K): 1.8 ± 0.077; activity coefficient (343.85 K): 1.82 ± 0.078; activity coefficient (352.65 K): 1.89 ± 0.083

Q: Which activity coefficient (322.65 K) does the source give for `Cc1cccc(C)c1` [1,3-dimethylbenzene] + CCn1cc[n+](C)c1.N#CN=C=[N-] here?
A: Its activity coefficient is 7.4 ± 0.34.

Q: What about the activity coefficient (332.85 K) of the same compound?
A: Its activity coefficient is 8.39 ± 0.38.

Q: And the activity coefficient (343.15 K)?
A: The activity coefficient was 7.27 ± 0.33.

Q: Which results are given for `Cc1ccc(C)cc1` [1,4-dimethylbenzene] + CCCCCC[N+](C)(C)C.O=S(=O)([N-]S(=O)(=O)C(F)(F)F)C(F)(F)F?
A: activity coefficient (322.65 K): 1.82 ± 0.079; activity coefficient (343.85 K): 1.82 ± 0.079; activity coefficient (352.65 K): 1.86 ± 0.081

Q: Which results are given for `Cc1ccc(C)cc1` [1,4-dimethylbenzene] + CCn1cc[n+](C)c1.N#CN=C=[N-]?
A: activity coefficient (322.65 K): 6.93 ± 0.32; activity coefficient (332.85 K): 7.05 ± 0.32; activity coefficient (343.15 K): 6.79 ± 0.31

Q: For `C1COCCO1` [1,4-dioxane] + CCCCCC[N+](C)(C)C.O=S(=O)([N-]S(=O)(=O)C(F)(F)F)C(F)(F)F, which activity coefficient (322.65 K) is on record?
A: Its activity coefficient is 0.655 ± 0.03.

Q: What about the activity coefficient (343.85 K) of the same compound?
A: Its activity coefficient is 0.661 ± 0.03.

Q: What about the activity coefficient (352.65 K) of the same compound?
A: The activity coefficient was 0.68 ± 0.03.

Q: Which results are given for `C1COCCO1` [1,4-dioxane] + CCn1cc[n+](C)c1.N#CN=C=[N-]?
A: activity coefficient (322.65 K): 0.89 ± 0.03; activity coefficient (332.85 K): 1.24 ± 0.04; activity coefficient (343.15 K): 1.25 ± 0.04

Q: Which activity coefficient (322.65 K) does the source give for `C#CCCCCC` [1-heptyne] + CCCCCC[N+](C)(C)C.O=S(=O)([N-]S(=O)(=O)C(F)(F)F)C(F)(F)F here?
A: Its activity coefficient is 3.57 ± 0.16.

Q: And the activity coefficient (343.85 K)?
A: Its activity coefficient is 3.5 ± 0.16.

Q: What about the activity coefficient (352.65 K) of the same compound?
A: The activity coefficient was 3.54 ± 0.16.

Q: For `C#CCCCCC` [1-heptyne] + CCn1cc[n+](C)c1.N#CN=C=[N-], which activity coefficient (322.65 K) is on record?
A: The activity coefficient was 14.5 ± 0.67.

Q: What about the activity coefficient (332.85 K) of the same compound?
A: The activity coefficient was 14.3 ± 0.66.

Q: What about the activity coefficient (343.15 K) of the same compound?
A: Its activity coefficient is 14.1 ± 0.65.

Q: Which activity coefficient (322.65 K) does the source give for `C#CCCCC` [1-hexyne] + CCCCCC[N+](C)(C)C.O=S(=O)([N-]S(=O)(=O)C(F)(F)F)C(F)(F)F here?
A: The activity coefficient was 2.62 ± 0.12.

Q: What about the activity coefficient (343.85 K) of the same compound?
A: Its activity coefficient is 2.56 ± 0.12.

Q: And the activity coefficient (352.65 K)?
A: Its activity coefficient is 2.58 ± 0.12.

Q: Which results are given for `C#CCCCC` [1-hexyne] + CCn1cc[n+](C)c1.N#CN=C=[N-]?
A: activity coefficient (322.65 K): 8.7 ± 0.4; activity coefficient (332.85 K): 8.47 ± 0.39; activity coefficient (343.15 K): 8.44 ± 0.39

Q: Which results are given for `CCC[N+](=O)[O-]` [1-nitropropane] + CCCCCC[N+](C)(C)C.O=S(=O)([N-]S(=O)(=O)C(F)(F)F)C(F)(F)F?
A: activity coefficient (322.65 K): 0.699 ± 0.03; activity coefficient (343.85 K): 0.681 ± 0.03; activity coefficient (352.65 K): 0.695 ± 0.03

Q: With `CCC[N+](=O)[O-]` [1-nitropropane] + CCn1cc[n+](C)c1.N#CN=C=[N-] as the compound, how does the activity coefficient (322.65 K) read?
A: The activity coefficient was 1.51 ± 0.06.

Q: And the activity coefficient (332.85 K)?
A: The activity coefficient was 1.5 ± 0.06.

Q: And the activity coefficient (343.15 K)?
A: The activity coefficient was 1.49 ± 0.06.

Q: For `OCC(F)(F)F` [2,2,2-trifluoroethanol] + CCCCCC[N+](C)(C)C.O=S(=O)([N-]S(=O)(=O)C(F)(F)F)C(F)(F)F, which activity coefficient (322.65 K) is on record?
A: Its activity coefficient is 0.157 ± 0.038.

Q: And the activity coefficient (343.85 K)?
A: The activity coefficient was 0.402 ± 0.034.

Q: And the activity coefficient (352.65 K)?
A: Its activity coefficient is 0.393 ± 0.034.

Q: What does the source list for `OCC(F)(F)F` [2,2,2-trifluoroethanol] + CCn1cc[n+](C)c1.N#CN=C=[N-]?
A: activity coefficient (322.65 K): 0.1 ± 0.04; activity coefficient (332.85 K): 0.11 ± 0.04; activity coefficient (343.15 K): 0.11 ± 0.04

Q: What does the source list for `CC(C)CC(C)(C)C` [2,2,4-trimethylpentane] + CCCCCC[N+](C)(C)C.O=S(=O)([N-]S(=O)(=O)C(F)(F)F)C(F)(F)F?
A: activity coefficient (322.65 K): 13.1 ± 0.6; activity coefficient (343.85 K): 12.1 ± 0.56; activity coefficient (352.65 K): 11.8 ± 0.54

Q: Which activity coefficient (322.65 K) does the source give for `CC(C)CC(C)(C)C` [2,2,4-trimethylpentane] + CCn1cc[n+](C)c1.N#CN=C=[N-] here?
A: The activity coefficient was 202 ± 9.5.

Q: And the activity coefficient (332.85 K)?
A: Its activity coefficient is 180 ± 8.5.

Q: What about the activity coefficient (343.15 K) of the same compound?
A: Its activity coefficient is 162 ± 7.6.

Q: Which activity coefficient (322.65 K) does the source give for `CC(C)CO` [2-methyl-1-propanol] + CCCCCC[N+](C)(C)C.O=S(=O)([N-]S(=O)(=O)C(F)(F)F)C(F)(F)F here?
A: Its activity coefficient is 2.1 ± 0.095.

Q: And the activity coefficient (343.85 K)?
A: The activity coefficient was 1.71 ± 0.071.

Q: What about the activity coefficient (352.65 K) of the same compound?
A: The activity coefficient was 1.63 ± 0.066.

Q: Which activity coefficient (322.65 K) does the source give for `CC(C)CO` [2-methyl-1-propanol] + CCn1cc[n+](C)c1.N#CN=C=[N-] here?
A: The activity coefficient was 1.48 ± 0.06.

Q: And the activity coefficient (332.85 K)?
A: Its activity coefficient is 1.4 ± 0.05.

Q: And the activity coefficient (343.15 K)?
A: Its activity coefficient is 1.33 ± 0.05.

Q: With `CCC(C)CC` [3-methylpentane] + CCCCCC[N+](C)(C)C.O=S(=O)([N-]S(=O)(=O)C(F)(F)F)C(F)(F)F as the compound, how does the activity coefficient (322.65 K) read?
A: Its activity coefficient is 8.65 ± 0.4.

Q: What about the activity coefficient (343.85 K) of the same compound?
A: Its activity coefficient is 8.09 ± 0.37.

Q: What about the activity coefficient (352.65 K) of the same compound?
A: The activity coefficient was 7.88 ± 0.36.

Q: What does the source list for `CCC(C)CC` [3-methylpentane] + CCn1cc[n+](C)c1.N#CN=C=[N-]?
A: activity coefficient (322.65 K): 93.7 ± 4.4; activity coefficient (332.85 K): 87.2 ± 4.1; activity coefficient (343.15 K): 81.4 ± 3.8

Q: Which activity coefficient (322.65 K) does the source give for `CC#N` [acetonitrile] + CCCCCC[N+](C)(C)C.O=S(=O)([N-]S(=O)(=O)C(F)(F)F)C(F)(F)F here?
A: Its activity coefficient is 0.486 ± 0.033.

Q: What about the activity coefficient (343.85 K) of the same compound?
A: The activity coefficient was 0.46 ± 0.033.

Q: What about the activity coefficient (352.65 K) of the same compound?
A: The activity coefficient was 0.465 ± 0.033.

Q: Which results are given for `CC#N` [acetonitrile] + CCn1cc[n+](C)c1.N#CN=C=[N-]?
A: activity coefficient (322.65 K): 0.8 ± 0.03; activity coefficient (332.85 K): 0.79 ± 0.03; activity coefficient (343.15 K): 0.79 ± 0.03

Q: With `c1ccccc1` [benzene] + CCCCCC[N+](C)(C)C.O=S(=O)([N-]S(=O)(=O)C(F)(F)F)C(F)(F)F as the compound, how does the activity coefficient (322.65 K) read?
A: Its activity coefficient is 0.99 ± 0.025.

Q: And the activity coefficient (343.85 K)?
A: Its activity coefficient is 0.993 ± 0.025.

Q: And the activity coefficient (352.65 K)?
A: Its activity coefficient is 1.02 ± 0.026.
